According to PMC11954145, “Antimicrobial and ADME properties of methoxylated, methylated and nitrated 2-hydroxynaphthalene-1 carboxanilides” (ADMET & DMPK, 2025):
In brackets after ≈: the same amount, converted by molar mass. Where two headings read alike, the source gives them in different places.

What was measured:
[1] = tested on: Mycobacterium kansasii DSM 44162; set-up: method as in PMID 23924993; conditions: previously published monosubstituted derivatives; cited from earlier work
[2] = tested on: S. aureus ATCC 29213; experiment: Antibacterial screening, broth microdilution MIC; type: cell-based; conditions: Staphylococcus aureus, ATCC29213; ATCC 29213, 24 h at 37 °C; read-out: MIC S. aureus
[3] = tested on: E. coli ATCC 25922; experiment: Antibacterial screening, broth microdilution MIC; type: cell-based; conditions: Escherichia coli, ATCC25922; ATCC 25922, 24 h at 37 °C
[4] = tested on: VRE 342B; experiment: Antibacterial screening, broth microdilution MIC; type: cell-based, vancomycin-resistant E. faecalis; conditions: Enterococcus, vanA isolate, 24 h at 37 °C, read-out: MIC VRE 342B
[5] = tested on: MRSA 63718; experiment: Antibacterial screening, broth microdilution MIC; type: cell-based, methicillin-resistant S. aureus; conditions: Staphylococcus aureus, read-out: MIC MRSA 63718
[6] = Lipophilicity determination by RP-HPLC (log k, log D); type: physicochemical; conditions: for log D6.5: RP-HPLC C18, MeOH 72 % / acetate-buffered saline pH 6.5; for log D7.4: RP-HPLC C18, MeOH 72 % / acetate-buffered saline pH 7.4; for log k (logarithm of the capacity factor): RP-HPLC C18, MeOH 72 % / water 28 %
Summary of the method: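 Isocratic RP-HPLC on a C18 column at 40 °C, UV detection at 210 nm, dead time from KI. Log k used MeOH/H2O 72:28, log D used MeOH/acetate-buffered saline (pH 7.4 or 6.5) 72:28. k and D were calculated as (tR–tD)/tD, three replicates.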

[7] = tested on: Mycobacterium tuberculosis ATCC 25177/H37Ra; experiment: Antimycobacterial screening, broth dilution MIC (Alamar blue); type: cell-based; conditions: 336 h, H37Ra, 14 days at 37 °C, Alamar blue, read-out: MIC M. tuberculosis
Summary of the method: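 Broth microdilution in Middlebrook 7H9 with ADC, compounds twofold from 256 to 0.125 μg mL^-1, 1.5×10^6 M. tuberculosis cells per well, 14 days at 37 °C. Alamar blue was then added for 24 h. MIC is the lowest concentration preventing blue resazurin turning pink resorufin; three repeats.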

[8] = tested on: VRE 725B; experiment: Antibacterial screening, broth microdilution MIC; type: cell-based, vancomycin-resistant E. faecalis; conditions: Enterococcus, vanA isolate, 24 h at 37 °C, read-out: MIC VRE 725B
[9] = tested on: Mycobacterium kansasii DSM 44162; experiment: Antimycobacterial screening, broth dilution MIC; type: cell-based; conditions: DSM44162, 336 h, read-out: MIC M. kansasii
[10] = tested on: MRSA SA 630; experiment: Antibacterial screening, broth microdilution MIC; type: cell-based, methicillin-resistant S. aureus; conditions: Staphylococcus aureus, read-out: MIC MRSA SA 630
[11] = tested on: Enterococcus faecalis ATCC 29212; experiment: Antibacterial screening, broth microdilution MIC; type: cell-based; conditions: read-out: MIC E. faecalis
[12] = tested on: human monocytic leukemia THP-1 cells; conditions: cited from earlier work
[13] = tested on: VRE 368; experiment: Antibacterial screening, broth microdilution MIC; type: cell-based, vancomycin-resistant E. faecalis; conditions: Enterococcus, read-out: MIC VRE 368
[14] = tested on: Mycobacterium smegmatis ATCC 700084; experiment: Antimycobacterial screening, broth dilution MIC; type: cell-based; conditions: Mycolicibacterium smegmatis, ATCC700084, 72 h, read-out: MIC M. smegmatis
[15] = tested on: MRSA 63718; set-up: method as in PMID 25692135; conditions: cited from earlier work
[16] = tested on: MRSA SA 3202; experiment: Antibacterial screening, broth microdilution MIC; type: cell-based, methicillin-resistant S. aureus; conditions: Staphylococcus aureus, clinical isolate, 24 h at 37 °C, read-out: MIC MRSA SA 3202
[17] = in vitro; conditions: human
Method: Cytotoxicity of the compounds was determined using an LDH assay kit (Roche Diagnostics, Mannheim, Germany) as described previously. Human monocytic leukemia THP-1 cells (European Collection of Cell Cultures, Salisbury, UK) were exposed for 24 h at 37 °C to various compound concentrations ranging from 0.37 to 30 μM in RPMI 1640 medium. For LDH assays, cells were seeded into 96-well plates (5×10^4 cells/well in 100 μL culture medium) in triplicate in serum-free RPMI 1640 medium and measurements were taken 24 h after the treatment with the compounds. The maximum concentration of DMSO (Sigma) in the assays never exceeded 0.1 %. […] The median lethal dose values, LC50, were deduced through the production of a dose-response curve. All data from three independent experiments were evaluated using GraphPad Prism 5.00 software (GraphPadSoftware, San Diego, CA, USA).

[18] = clinical isolate, 24 h at 37 °C
[19] = ATCC29212, ATCC 29212, 24 h at 37 °C

Compound | MIC [2] | MIC [3] | MIC [4] | MIC [5, 18] | log D6.5 [6] | log D7.4 [6] | log k (logarithm of the capacity factor) [6] | MIC [7] | MIC [8] | MIC ([9]; DSM 44162, 14 days at 37 °C) | MIC [10, 18] | MIC [11, 19] | CC50 [12] | MIC ([13]; vanA isolate, 24 h at 37 °C) | MIC ([14]; ATCC 700084, 3 days at 37 °C) | MIC [16] | CC50 at 24 h [17] | further results
O=C(Nc1ccc(C(F)(F)F)cc1)c1c(O)ccc2ccccc12 [2-hydroxy-N-(4-trifluoromethylphenyl)naphthalene-1-carboxamide] | – | – | – | – | – | – | – | – | – | – | – | – | – | – | – | – | – | MIC M. kansasii [1]: 23 µM (≈ 7.62 µg/mL)
O=C(Nc1ccc([N+](=O)[O-])cc1)c1c(O)ccc2ccccc12 [Compound 26, 2-hydroxy-N-(4-nitrophenyl)naphthalene-1-carboxamide] | > 830 µM | 830 µM (≈ 256 µg/mL) | 830 µM (≈ 256 µg/mL) | 830 µM (≈ 256 µg/mL) | 0.0862 | 0.0879 | 0.0984 | 104 µM (≈ 32.1 µg/mL) | 830 µM (≈ 256 µg/mL) | 415 µM (≈ 128 µg/mL) | 415 µM (≈ 128 µg/mL) | 415 µM (≈ 128 µg/mL) | 2.5 ± 0.1 µM | 830 µM (≈ 256 µg/mL) | 208 µM (≈ 64.1 µg/mL) | – | – | –
CN[C@H](CC(C)C)C(=O)N[C@H]1C(=O)N[C@@H](CC(N)=O)C(=O)N[C@H]2C(=O)N[C@H]3C(=O)N[C@H](C(=O)N[C@H](C(=O)O)c4cc(O)cc(O)c4-c4cc3ccc4O)[C@H](O)c3ccc(c(Cl)c3)Oc3cc2cc(c3O[C@@H]2O[C@H](CO)[C@@H](O)[C@H](O)[C@H]2O[C@H]2C[C@](C)(N)[C@H](O)[C@H](C)O2)Oc2ccc(cc2Cl)[C@H]1O [vancomycin] | – | – | – | – | – | – | – | – | – | – | – | – | – | – | – | – | – | MIC of vancomycin [15]: 2 µg/mL
O=C(Nc1ccccc1[N+](=O)[O-])c1c(O)ccc2ccccc12 [Compound 24, 2-hydroxy-N-(2-nitrophenyl)naphthalene-1-carboxamide] | 26 µM (≈ 8.02 µg/mL) | 830 µM (≈ 256 µg/mL) | 830 µM (≈ 256 µg/mL) | 415 µM (≈ 128 µg/mL) | 0.3077 | 0.3103 | 0.3033 | 104 µM (≈ 32.1 µg/mL) | 830 µM (≈ 256 µg/mL) | 51.9 µM (≈ 16 µg/mL) | – | 830 µM (≈ 256 µg/mL) | > 20 µM | 830 µM (≈ 256 µg/mL) | 208 µM (≈ 64.1 µg/mL) | 51.9 µM (≈ 16 µg/mL) | – | –
O=C(Nc1ccc([N+](=O)[O-])c(C(F)(F)F)c1)c1c(O)ccc2ccccc12 [Compound 27, 2-Hydroxy-N-[4-nitro-3-(trifluoromethyl)phenyl]naphthalene-1-carboxamide] | 0.332 µM (≈ 0.125 µg/mL) | 680 µM (≈ 256 µg/mL) | 42.5 µM (≈ 16 µg/mL) | 1.33 µM (≈ 0.5 µg/mL) | 0.3282 | 0.3220 | – | 85 µM (≈ 32 µg/mL) | 42.5 µM (≈ 16 µg/mL) | 21.3 µM (≈ 8.01 µg/mL) | 1.33 µM (≈ 0.5 µg/mL) | 21.3 µM (≈ 8.01 µg/mL) | – | 21.3 µM (≈ 8.01 µg/mL) | 21.3 µM (≈ 8.01 µg/mL) | 1.33 µM (≈ 0.5 µg/mL) | > 30 µM | –
O=C(Nc1ccc(Br)cc1)c1c(O)ccc2ccccc12 [N-(4-bromophenyl)-2-hydroxynaphthalene-1-carboxamide] | – | – | – | – | – | – | – | – | – | – | – | – | – | – | – | – | – | MIC M. kansasii [1]: 93 µM (≈ 31.8 µg/mL)
Cc1cc(C)cc(NC(=O)c2c(O)ccc3ccccc23)c1 [Compound 13, N-(3,5-Dimethylphenyl)-2-hydroxynaphthalene-1-carboxamide] | 54.9 µM (≈ 16 µg/mL) | 879 µM (≈ 256 µg/mL) | 879 µM (≈ 256 µg/mL) | 54.9 µM (≈ 16 µg/mL) | 0.3429 | 0.3480 | 0.3367 | 439 µM (≈ 128 µg/mL) | 879 µM (≈ 256 µg/mL) | 110 µM (≈ 32 µg/mL) | 54.9 µM (≈ 16 µg/mL) | 879 µM (≈ 256 µg/mL) | – | 879 µM (≈ 256 µg/mL) | 220 µM (≈ 64.1 µg/mL) | 54.9 µM (≈ 16 µg/mL) | > 30 µM | –
Cc1ccc(C(F)(F)F)cc1NC(=O)c1c(O)ccc2ccccc12 [Compound 22, 2-Hydroxy-N-[2-methyl-5-(trifluoromethyl)phenyl]naphthalene-1-carboxamide] | 2.9 µM (≈ 1 µg/mL) | 23.2 µM (≈ 8.01 µg/mL) | 92.6 µM (≈ 32 µg/mL) | 5.79 µM (≈ 2 µg/mL) | 0.3444 | 0.3440 | – | 46.3 µM (≈ 16 µg/mL) | 92.6 µM (≈ 32 µg/mL) | – | 2.9 µM (≈ 1 µg/mL) | – | – | – | 23.2 µM (≈ 8.01 µg/mL) | 2.9 µM (≈ 1 µg/mL) | > 30 µM | MIC [9]: 46.3 µM (≈ 16 µg/mL); MIC ([11]; ATCC29212, 24 h): 46.3 µM (≈ 16 µg/mL); MIC ([13]; 24 h): 46.3 µM (≈ 16 µg/mL)
COc1cc(NC(=O)c2c(O)ccc3ccccc23)cc(OC)c1 [Compound 6, N-(3,5-Dimethoxyphenyl)-2-hydroxynaphthalene-1-carboxamide] | 198 µM (≈ 64 µg/mL) | 792 µM (≈ 256 µg/mL) | 792 µM (≈ 256 µg/mL) | – | 0.0411 | 0.0490 | 0.0388 | 396 µM (≈ 128 µg/mL) | 792 µM (≈ 256 µg/mL) | 98.9 µM (≈ 32 µg/mL) | – | 792 µM (≈ 256 µg/mL) | – | 792 µM (≈ 256 µg/mL) | – | 198 µM (≈ 64 µg/mL) | > 30 µM | MIC ([5]; 24 h): 396 µM (≈ 128 µg/mL); MIC ([10]; 24 h): 396 µM (≈ 128 µg/mL); MIC [14]: 396 µM (≈ 128 µg/mL)
O=C(Nc1cccc([N+](=O)[O-])c1)c1c(O)ccc2ccccc12 [Compound 25, 2-hydroxy-N-(3-nitrophenyl)naphthalene-1-carboxamide] | 208 µM (≈ 64.1 µg/mL) | 830 µM (≈ 256 µg/mL) | 830 µM (≈ 256 µg/mL) | 26 µM (≈ 8.02 µg/mL) | 0.3462 | 0.3058 | 0.4882 | 104 µM (≈ 32.1 µg/mL) | 830 µM (≈ 256 µg/mL) | – | 208 µM (≈ 64.1 µg/mL) | 830 µM (≈ 256 µg/mL) | > 20 µM | 830 µM (≈ 256 µg/mL) | 208 µM (≈ 64.1 µg/mL) | 208 µM (≈ 64.1 µg/mL) | – | MIC [9]: 104 µM (≈ 32.1 µg/mL)
